Assay results from the NIST ThermoML archive (doi:10.1021/je800325d).
Numbers after ± are expanded uncertainties.

What was measured:
[1] = refractive index (Na D-line) (dimensionless); xn = mol fraction of the nth substance listed; details: 101 kPa, Liquid, Standard Abbe refractometry
[2] = xn = mol fraction of the nth substance listed; details: 101 kPa, Liquid

COC(=O)c1ccccc1 [methyl benzoate] + Cc1ccccc1C
Details | mass density, [2] [kg/m3] | refractive index, [1] | viscosity, [2] [mPa·s]
303.15 K, x1 = 0.0879 | 890.4 ± 4.1 | 1.5006 ± 0.0007 | 0.757 ± 0.016
303.15 K, x1 = 0.1997 | 911.4 ± 4.2 | 1.5007 ± 0.0007 | 0.842 ± 0.017
303.15 K, x1 = 0.3008 | 931.3 ± 4.3 | 1.501 ± 0.0006 | 0.908 ± 0.017
303.15 K, x1 = 0.3925 | 951.2 ± 4.3 | 1.5012 ± 0.0006 | 0.975 ± 0.018
303.15 K, x1 = 0.4928 | 970.9 ± 4.4 | 1.5016 ± 0.0006 | 1.06 ± 0.019
303.15 K, x1 = 0.5939 | 991.7 ± 4.4 | 1.5022 ± 0.0006 | 1.16 ± 0.019
303.15 K, x1 = 0.6852 | 1009.5 ± 4.5 | 1.5055 ± 0.0006 | 1.252 ± 0.02
303.15 K, x1 = 0.798 | 1031.6 ± 4.6 | 1.5083 ± 0.0006 | 1.395 ± 0.021
303.15 K, x1 = 0.8981 | 1052.1 ± 4.6 | 1.511 ± 0.0006 | 1.506 ± 0.022
303.15 K, x1 = 0.9485 | 1056.3 ± 4.6 | 1.5115 ± 0.0006 | 1.593 ± 0.022
313.15 K, x1 = 0.0879 | 882.3 ± 4.5 | 1.497 ± 0.0007 | 0.664 ± 0.016
313.15 K, x1 = 0.1997 | 902.1 ± 4.5 | 1.4971 ± 0.0007 | 0.72 ± 0.016
313.15 K, x1 = 0.3008 | 922.8 ± 4.6 | 1.498 ± 0.0006 | 0.785 ± 0.016
313.15 K, x1 = 0.3925 | 942.6 ± 4.6 | 1.4996 ± 0.0006 | 0.836 ± 0.017
313.15 K, x1 = 0.4928 | 962.4 ± 4.7 | 1.5002 ± 0.0006 | 0.91 ± 0.017
313.15 K, x1 = 0.5939 | 983 ± 4.8 | 1.5017 ± 0.0006 | 0.992 ± 0.018
313.15 K, x1 = 0.6852 | 1000.7 ± 4.8 | 1.5038 ± 0.0006 | 1.07 ± 0.018
313.15 K, x1 = 0.798 | 1022.5 ± 4.9 | 1.5062 ± 0.0006 | 1.171 ± 0.019
313.15 K, x1 = 0.8981 | 1042.8 ± 4.9 | 1.5085 ± 0.0006 | 1.29 ± 0.02
313.15 K, x1 = 0.9485 | 1046.7 ± 4.9 | 1.5101 ± 0.0006 | 1.351 ± 0.02
